Consider 6 compounds from ChEMBL document CHEMBL6134923, “Novel Tricyclic Compounds as GSK3 Inhibitors” (ACS Med Chem Lett, 2025).

In test [1] the target is Glycogen synthase kinase-3 alpha (Homo sapiens, UniProt P49840). The test is described as follows: Inhibition of N-terminal GST-tagged full-length recombinant human GSK-3alpha extracted from baculovirus infected Sf9 cells using biotinylated-phosphorylated glycogen synthase incubated for 100 mins in presence of ATP by TR-FRET assay.
The target in test [2] is Glycogen synthase kinase-3 beta (Homo sapiens, UniProt P49841). The test is described as follows: Inhibition of N-terminal GST-tagged full-length recombinant human GSK-3beta extracted from baculovirus infected Sf9 cells using biotinylated-phosphorylated glycogen synthase incubated for 100 mins in presence of ATP by TR-FRET assay. (Time-resolved FRET reads energy transfer from a long-lived donor to a nearby acceptor.)
Chain of Glycogen synthase kinase-3 beta (P49841 whole entry): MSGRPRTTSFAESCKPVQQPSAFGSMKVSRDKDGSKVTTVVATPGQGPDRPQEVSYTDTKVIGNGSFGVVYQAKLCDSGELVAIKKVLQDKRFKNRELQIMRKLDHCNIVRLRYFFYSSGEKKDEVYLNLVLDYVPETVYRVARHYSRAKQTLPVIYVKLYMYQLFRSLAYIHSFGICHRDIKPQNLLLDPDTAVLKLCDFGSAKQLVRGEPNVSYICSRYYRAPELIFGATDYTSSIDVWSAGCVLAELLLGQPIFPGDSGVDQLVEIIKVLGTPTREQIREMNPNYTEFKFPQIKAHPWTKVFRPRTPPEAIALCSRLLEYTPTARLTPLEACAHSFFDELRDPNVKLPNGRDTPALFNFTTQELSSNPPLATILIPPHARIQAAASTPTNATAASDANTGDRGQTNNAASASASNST

Chain of Glycogen synthase kinase-3 alpha (P49840 whole entry): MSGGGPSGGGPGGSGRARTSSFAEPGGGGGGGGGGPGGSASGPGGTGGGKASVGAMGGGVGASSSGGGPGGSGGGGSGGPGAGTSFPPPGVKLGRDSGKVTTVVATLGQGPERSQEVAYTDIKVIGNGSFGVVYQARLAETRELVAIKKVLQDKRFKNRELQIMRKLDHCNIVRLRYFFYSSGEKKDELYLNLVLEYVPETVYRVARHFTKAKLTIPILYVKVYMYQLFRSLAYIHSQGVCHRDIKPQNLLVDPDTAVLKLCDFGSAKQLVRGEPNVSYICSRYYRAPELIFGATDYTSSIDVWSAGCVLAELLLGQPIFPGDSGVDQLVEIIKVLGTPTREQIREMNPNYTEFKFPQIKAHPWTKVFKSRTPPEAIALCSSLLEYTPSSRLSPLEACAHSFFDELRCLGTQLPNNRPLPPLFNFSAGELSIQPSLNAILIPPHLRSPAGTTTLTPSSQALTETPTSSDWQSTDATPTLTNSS

As to `CC[C@]1(c2cccc(OC(C)C)c2)C2=C(CC(C)(C)CC2=O)Nc2n[nH]c(C(F)(F)F)c21`, the IC50 in test [1] and in test [2] was ≤ 100 nM each time.
As to `CCC1(c2cccc(N3CC4CCC(C4)C3)c2)C2=C(CC(C)(C)CC2=O)Nc2n[nH]cc21` (configuration not stated), the values for the IC50 in test [1] and in test [2] were > 100 nM and > 1000 nM, respectively.
As for `CC[C@@]1(c2cccc(S(=O)(=O)C3CC3)c2)C2=C(CC(C)(C)CC2=O)Nc2n[nH]c(C(F)(F)F)c21`, the IC50 in test [1] and in test [2] was ≤ 100 nM in each case.
On to `CC[C@@]1(c2cccc(-c3cc(C)ncc3C)c2)C2=C(CC(C)(C)CC2=O)Nc2n[nH]c(C(F)(F)F)c21`, for which the IC50 in test [1] and in test [2] was > 100 nM throughout.
In the case of `CC[C@@]1(c2cccc(-c3cncn3C)c2)C2=C(CC(C)(C)NC2=O)Nc2n[nH]c(C(F)(F)F)c21`, the IC50 in test [1] and in test [2] was ≤ 100 nM throughout.
`CC[C@@]1(c2cccc(C(F)(F)F)c2)C2=C(Nc3n[nH]cc31)[C@H](F)C(C)(C)CC2=O`: the IC50 in test [1] and in test [2] was ≤ 100 nM throughout.

As usually defined, the IC50 is the midpoint of a concentration-inhibition curve.
